In the experiment the target is T1, KCNQ2/3 potassium ion channel (Homo sapiens, UniProt O43525+O43526).
T1 construct: expressed in transfected cells; host or cells: CHO cells (hKCNQ-CHO)
Kind of experiment: KCNQ2/3 potassium ion channel activation assay (whole-cell patch clamp, hKCNQ-CHO cells). It is filed as cell-based. The following applies: test concentration 3 μM, read-out: Enhancment % (current enhancement multiple). As to the method: Example 64: KCNQ2/3 Potassium Ion Channel Activation Assay
hKCNQ-CHO cells were cultured at 37° C. in a humidified environment of 5% CO2.
• 2.1. Extracellular fluid (mM): NaCl 145, KCl 4, CaCl2 2, MgCl2 1, Glucose 10, HEPES 10. The pH value of the extracellular fluid was adjusted to 7.4 with NaOH, and the osmotic pressure was adjusted to about 295 mOsm. • 2.2. Intracellular fluid (mM (mmol/L)): KOH 31.25, KCl 120, EGTA 10, MgCl2 1.75, CaCl2 5.374, HEPES 10, Na-ATP 4. The pH value of the intracellular fluid was adjusted to 7.4 with HCl, and the osmotic pressure was adjusted to about 285 mOsm. • 2.3. The extracellular fluid should be prepared once a week, and the intracellular fluid should be stored at −20° C. after preparation.
The model positive reference compound Retigabine (RTG) was dissolved with 100% DMSO and configured as a 10 mM working solution. The test compounds were dissolved with 100% DMSO and configured as a 10 mM working solution. The final concentration of DMSO in the test solution should be less than 0.3%.
Whole-cell patch clamp was performed at room temperature. The electrical signals recorded with the EPC 10 USB amplifier (HEKA Elektronik, Germany) were filtered by a 3 kHz low-pass filter, and finally recorded in PatchMaster 2×90.5 software (HEKA Elektronik, Germany). At this step, the quality control standard was that the cell high-resistance sealing was greater than 500 MOhms, and the detection current was greater than 0.4 nA.
The recording electrodes were pulled out and polished with a vertical puller (NARISHIGE PC-10, Japan) using a borosilicate glass capillary (GC150tF-10, Harvard Apparatus Co., UK). At this step, the quality control standard was that the electrode resistance was between 2 MΩ and 5 MΩ.
During the recording process of the whole-cell patch clamp, a continuous perfusion system (BT100-2J, LongerPump, China) was used to continuously perfuse the extracellular fluid. The perfusion system was installed on the stage of an upright microscope (FN-S2N, Nikon, Japan), and the perfusion head was manually positioned under the microscope.
The voltage command for detecting the amplitude of hKCNQ current was as follows: the cell stepped from the clamping potential of −80 mV to −30 mV, and held for 1500 ms; and then the clamping voltage was lowered to −120 my and held for 500 ms; finally, the voltage returned to the clamping potential of −80 mV. The detection voltage command was repeated every 15,000 milliseconds, and the command was continuously executed during the compound test. The quality control standard for compound action stability was the current amplitude under 5 consecutive voltage commands, and the coefficient of variation of the current amplitude was <5%.
Data analysis was performed using PatchMaster 2×90.5 software (HEKA Elektronik, Germany) and Excel 2013 (Microsoft, USA) software. For each cell's patch clamp recording, the amplitude of the hKCNQ channel current (Itest) corresponding to the test compound concentration should be obtained. The enhanced channel current was obtained by subtracting the cell's original channel current (Icontrol) from Itest and dividing by Icontrol to obtain the current enhancement multiple. That is, the current enhancement multiple (Enhancment %)=(Itest −Icontrol)/Icontrol[…].
(In general: In patch-clamp work, channel activity is measured electrically.)
`Cc1cc(N2CCCc3cc(O[C@H](C)C(F)(F)F)c(F)cc3C2)cc(C)c1NC(=O)CC(C)(C)C` [Compound 037, (R)—N-(4-(8-fluoro-7-((1,1,1-trifluoropropan-2-yl)oxy)-1,3,4,5-tetrahydro-2H-benzo[c]azepin-2-yl)-2,6-dimethylphenyl)-3,3-dimethylbutanamide]: the activation at 3 µM was above 100%.
As for `COc1cc2c(cc1F)CN(c1cc(C)c(NC(=O)CC(C)(C)C)c(C)c1)CCC2` [Compound 038, N-(4-(8-fluoro-7-methoxy-1,3,4,5-tetrahydro-2H-benzo[c]azepin-2-yl)-2,6-dimethylphenyl)-3,3-dimethylbutanamide], the figure is above 100%.
For `CCC(C)Oc1cc2c(cc1F)CN(c1cc(C)c(NC(=O)CC(C)(C)C)c(C)c1)CCC2` (centres unmarked) [Compound 039, N-(4-(7-(sec-butoxy)-8-fluoro-1,3,4,5-tetrahydro-2H-benzo[c]azepin-2-yl)-2,6-dimethylphenyl)-3,3-dimethylbutanamide], the activation at 3 µM was above 100%.
For the molecule `CC[C@H](C)Oc1cc2c(cc1F)CN(c1cc(C)c(NC(=O)CC(C)(C)C)c(C)c1)CCC2` [Compound 040, (S)—N-(4-(7-(sec-butoxy)-8-fluoro-1,3,4,5-tetrahydro-2H-benzo[c]azepin-2-yl)-2,6-dimethylphenyl)-3,3-dimethylbutanamide], the activation at 3 µM was above 100%.
As to `CC[C@@H](C)Oc1cc2c(cc1F)CN(c1cc(C)c(NC(=O)CC(C)(C)C)c(C)c1)CCC2` [Compound 041, (R)—N-(4-(7-(sec-butoxy)-8-fluoro-1,3,4,5-tetrahydro-2H-benzo[c]azepin-2-yl)-2,6-dimethylphenyl)-3,3-dimethylbutanamide], the activation at 3 µM is above 100%.
On to `Cc1cc(N2CCCc3cc(OC4CC4)c(F)cc3C2)cc(C)c1NC(=O)CC(C)(C)C` [Compound 042, N-(4-(7-cyclopropoxy-8-fluoro-1,3,4,5-tetrahydro-2H-benzo[c]azepin-2-yl)-2,6-dimethylphenyl)-3,3-dimethylbutanamide], for which the activation at 3 µM is above 100%.
Then `Cc1cc(N2CCCc3cc(OC4CCC4)c(F)cc3C2)cc(C)c1NC(=O)CC(C)(C)C` [Compound 043, N-(4-(7-cyclobutoxy-8-fluoro-1,3,4,5-tetrahydro-2H-benzo[c]azepin-2-yl)-2,6-dimethylphenyl)-3,3-dimethylbutanamide], with above 100%; and `Cc1cc(N2CCCc3cc(OC4CCCC4)c(F)cc3C2)cc(C)c1NC(=O)CC(C)(C)C` [Compound 044, N-(4-(7-(cyclopentyloxy)-8-fluoro-1,3,4,5-tetrahydro-2H-benzo[c]azepin-2-yl)-2,6-dimethylphenyl)-3,3-dimethylbutanamide], with above 100%; and `Cc1cc(N2CCCc3cc(OC4CCCCC4)c(F)cc3C2)cc(C)c1NC(=O)CC(C)(C)C` [Compound 045, N-(4-(7-(cyclohexyloxy)-8-fluoro-1,3,4,5-tetrahydro-2H-benzo[c]azepin-2-yl)-2,6-dimethylphenyl)-3,3-dimethylbutanamide], with above 100%.
In the case of `Cc1cc(N2CC=Cc3cc(F)c(F)cc3C2)cc(C)c1NC(=O)CC(C)(C)C` [Compound 046, N-(4-(7,8-difluoro-1,3-dihydro-2H-benzo[c]azepin-2-yl)-2,6-dimethylphenyl)-3,3-dimethylbutanamide], the activation at 3 µM is above 100%.
As to `Cc1cc(N2CCCc3cc(F)c(F)cc3C2)cc(C)c1NC(=O)CC(C)(C)C` [Compound 047, N-(4-(7,8-difluoro-1,3,4,5-tetrahydro-2H-benzo[c]azepin-2-yl)-2,6-dimethylphenyl)-3,3-dimethylbutanamide], the activation at 3 µM was above 100%.
Then `Cc1cc(N2CCCc3cc(F)c(F)cc3C2)c(Cl)c(C)c1NC(=O)CC(C)(C)C` [Compound 048, N-(3-chloro-4-(7,8-difluoro-1,3,4,5-tetrahydro-2H-benzo[c]azepin-2-yl)-2,6-dimethylphenyl)-3,3-dimethylbutanamide], with above 100%; and `Cc1cc(N2CCC3(CC3)c3cc(F)c(F)cc3C2)cc(C)c1NC(=O)CC(C)(C)C` [Compound 049, N-(4-(7,8-difluoro-3,4-dihydrospiro[benzo[c]azepine-5,1′-cyclopropan]-2(1H)-yl)-2,6-dimethylphenyl)-3,3-dimethylbutanamide], with above 100%.
Turning to `Cc1cc(N2CCCc3cc(OC/C=C/C(F)(F)F)ccc3C2)cc(C)c1NC(=O)CC(C)(C)C` [Compound 050, (E)-N-(2,6-dimethyl-4-(7-((4,4,4-trifluorobut-2-en-1-yl)oxy)-1,3,4,5-tetrahydro-2H-benzo[c]azepin-2-yl)phenyl)-3,3-dimethylbutanamide], the activation at 3 µM is above 100%.
Then `Cc1cc(N2CCCc3cc(OC45CC(C(F)F)(C4)C5)ccc3C2)cc(C)c1NC(=O)CC(C)(C)C` [Compound 051, N-(4-(7-((3-(difluoromethyl)bicyclo[1.1.1]pentan-1-yl)oxy)-1,3,4,5-tetrahydro-2H-benzo[c]azepin-2-yl)-2,6-dimethylphenyl)-3,3-dimethylbutanamide], with above 100%; and `COC(Oc1ccc2c(c1)CCCN(c1cc(C)c(NC(=O)CC(C)(C)C)c(C)c1)C2)C(F)(F)F` (centres unmarked) [Compound 052, N-(2,6-dimethyl-4-(7-(2,2,2-trifluoro-1-methoxyethoxy)-1,3,4,5-tetrahydro-2H-benzo[c]azepin-2-yl)phenyl)-3,3-dimethylbutanamide], with above 100%; and `Cc1cc(N2CCCc3cc(OCC(C)C(F)(F)F)ccc3C2)cc(C)c1NC(=O)CC(C)(C)C` (centres unmarked) [Compound 053, N-(2,6-dimethyl-4-(7-(3,3,3-trifluoro-2-methylpropoxy)-1,3,4,5-tetrahydro-2H-benzo[c]azepin-2-yl)phenyl)-3,3-dimethylbutanamide], with above 100%.
Then `Cc1cc(N2CCCc3cc(OCC4(C(F)(F)F)CC4)ccc3C2)cc(C)c1NC(=O)CC(C)(C)C` [Compound 054, N-(2,6-dimethyl-4-(7-((1-(trifluoromethyl)cyclopropyl)methoxy)-1,3,4,5-tetrahydro-2H-benzo[c]azepin-2-yl)phenyl)-3,3-dimethylbutanamide], with above 100%; and `Cc1cc(N2CCCc3cc(OC(C(F)(F)F)C(F)(F)F)ccc3C2)cc(C)c1NC(=O)CC(C)(C)C` [Compound 055, N-(4-(7-((1,1,1,3,3,3-hexafluoropropan-2-yl)oxy)-1,3,4,5-tetrahydro-2H-benzo[c]azepin-2-yl)-2,6-dimethylphenyl)-3,3-dimethylbutanamide], with above 100%; and `Cc1cc(N2CCCc3cc(OCCOCC(F)(F)F)ccc3C2)cc(C)c1NC(=O)CC(C)(C)C` [Compound 056, N-(2,6-dimethyl-4-(7-(2-(2,2,2-trifluoroethoxy)ethoxy)-1,3,4,5-tetrahydro-2H-benzo[c]azepin-2-yl)phenyl)-3,3-dimethylbutanamide], with above 100%.
For `Cc1cc(N2CCCc3cc(OCC(F)(F)C(F)F)ccc3C2)cc(C)c1NC(=O)CC(C)(C)C` [Compound 057, N-(2,6-dimethyl-4-(7-(2,2,3,3-tetrafluoropropoxy)-1,3,4,5-tetrahydro-2H-benzo[c]azepin-2-yl)phenyl)-3,3-dimethylbutanamide], the activation at 3 µM is above 100%.
As to `Cc1cc(N2CCCc3cc(OCCC(F)(F)F)ccc3C2)cc(C)c1NC(=O)CC(C)(C)C` [Compound 058, N-(2,6-dimethyl-4-(7-(3,3,3-trifluoropropoxy)-1,3,4,5-tetrahydro-2H-benzo[c]azepin-2-yl)phenyl)-3,3-dimethylbutanamide], the activation at 3 µM is above 100%.
As for `Cc1cc(N2CCCc3cc(OC4CCC(C(F)(F)F)CC4)ccc3C2)cc(C)c1NC(=O)CC(C)(C)C` (centres unmarked) [Compound 059, N-(2,6-dimethyl-4-(7-((4-(trifluoromethyl)cyclohexyl)oxy)-1,3,4,5-tetrahydro-2H-benzo[c]azepin-2-yl)phenyl)-3,3-dimethylbutanamide], the figure is above 100%.
